Source: ChEMBL document CHEMBL1157461, “Potent non-nucleoside inhibitors of the measles virus RNA-dependent RNA polymerase complex” (J Med Chem, 2008)

Columns and labels:
[1] = system: Measles morbillivirus; test: Antiviral activity against Measles virus Alaska in Vero cells assessed as reduction of viral titer; type: functional, organism-based
[2] = system: Measles morbillivirus; test: Antiviral activity against Measles virus Alaska in Vero cells assessed as inhibition of cytopathic effect; type: functional, organism-based
[3] = Cytotoxicity against african green monkey Vero cells by MTT assay; type: cell-based; conditions: chlorocebus sabaeus
[4] = Cytotoxicity against african green monkey Vero cells by trypan blue exclusion assay; type: cell-based; conditions: chlorocebus sabaeus
[5] = system: Measles morbillivirus; test: Antiviral activity against Measles virus Edmonston; type: functional, organism-based
[6] = (§1) Selectivity index, ratio of CC50 for african green monkey Vero cells to EC50 for Measles virus Alaska; type: toxicity, cell-based; conditions: read-out: Ratio CC50/EC50
[7] = as §1; type: toxicity, cell-based; conditions: read-out: Ratio CC50/EC50; remark: listed apart in the source
[8] = Selectivity index, ratio of CC50 for Vero cells to EC50 for Measles virus Leningrad 16; type: toxicity, cell-based; conditions: monkey, read-out: Ratio CC50/EC50

Structure (SMILES) | EC50 [1] | EC50 [2] | CC50 [3] | other results
CCCN(CCC)S(=O)(=O)c1ccc(NC(=O)c2cc(C(F)(F)F)nn2C)cc1 | 0.19 µM | < 2.3 µM | > 300 µM | –
CC1CCCCN1S(=O)(=O)c1ccc(NC(=O)c2cc(C(F)(F)F)nn2Cc2ccccc2)cc1 (configuration not stated) | > 19 µM | > 19 µM | – | CC50 [4]: 19 µM
CCn1nc(C(F)(F)F)cc1C(=O)Nc1ccc(S(=O)(=O)N2CCCCC2C)cc1 (configuration not stated) | 0.055 µM | < 2.3 µM | 30 µM | –
CC(C)CN(CC(C)C)S(=O)(=O)c1ccc(NC(=O)c2cc(C(F)(F)F)nn2C)cc1 | – | > 13.8 µM | 13.8 µM | –
Cn1nc(C(F)(F)F)cc1C(=O)Nc1ccc(S(=O)(=O)N2CCCC2)cc1 | – | – | – | EC50 [5]: 0.25 µM
Cn1nc(C(F)(F)F)cc1C(=O)Nc1ccc(S(=O)(=O)N2CCNCC2)cc1 | – | 28 µM | – | –
CC(C)N(C(C)C)S(=O)(=O)c1ccc(NC(=O)c2cc(C(F)(F)F)nn2C)cc1 | 0.53 µM | 3.5 µM | > 300 µM | –
COC(=O)c1ccccc1-n1nc(C(F)(F)F)cc1C(=O)Nc1ccc(S(=O)(=O)N2CCCC2)cc1 | > 75 µM | > 75 µM | – | CC50 [4]: > 300 µM
Cn1nc(C(F)(F)F)cc1C(=O)Nc1ccc(S(=O)(=O)N2CCN(C(=O)OC(C)(C)C)CC2)cc1 | – | > 75 µM | > 300 µM | –
Cn1nc(C(F)(F)F)cc1C(=O)Nc1ccc(S(=O)(=O)N2CCCCC2C(=O)OC(C)(C)C)cc1 (configuration not stated) | – | > 38 µM | 38 µM | –
O=C(O)c1ccccc1-n1nc(C(F)(F)F)cc1C(=O)Nc1ccc(S(=O)(=O)N2CCCC2)cc1 | > 75 µM | > 75 µM | – | CC50 [4]: > 300 µM
COC=C1CCN(S(=O)(=O)c2ccc(NC(=O)c3cc(C(F)(F)F)nn3C)cc2)CC1 | – | > 75 µM | 92 µM | –
CC1CCCCN1S(=O)(=O)c1ccc(NC(=O)c2cc(C(F)(F)F)nn2C)cc1 (configuration not stated) | 0.029 µM | < 2.3 µM | > 300 µM | CC50 [4]: 54 µM
CC1CCCCN1S(=O)(=O)c1cccc(NC(=O)c2cc(C(F)(F)F)nn2C)c1 (configuration not stated) | – | > 75 µM | 84 µM | –
Cn1nc(C(F)(F)F)cc1C(=O)Nc1ccc(S(=O)(=O)N2CCC[C@H]2C(=O)O)cc1 | – | 23 µM | > 300 µM | –
CN(C(=O)c1cc(C(F)(F)F)nn1C)c1ccc(S(=O)(=O)N2CCCCC2)cc1 | – | > 75 µM | 286 µM | –
Cn1nc(C(F)(F)F)cc1C(=O)Nc1ccc(S(=O)(=O)N2CCOCC2)cc1 | – | 43 µM | > 300 µM | –
Cn1nc(C(F)(F)F)cc1C(=O)Nc1ccc(S(=O)(=O)n2ccc3ccccc32)cc1 | – | > 13 µM | – | –
Cn1nc(C(F)(F)F)cc1C(=O)Nc1ccc(S(=O)(=O)N2CCCC(C(=O)O)C2)cc1 (configuration not stated) | – | > 75 µM | > 300 µM | –
CCC1CCCCN1S(=O)(=O)c1ccc(NC(=O)c2cc(C(F)(F)F)nn2C)cc1 (configuration not stated) | 0.087 µM | < 2.3 µM | > 300 µM | CC50 [4]: 14 µM
CN(C)S(=O)(=O)c1ccc(NC(=O)c2cc(C(F)(F)F)nn2C)cc1 | – | 6.3 µM | > 300 µM | –
Cn1nc(C(F)(F)F)cc1C(=O)Nc1ccc(S(=O)(=O)N2CCC(NC(=O)OC(C)(C)C)CC2)cc1 | – | 14.1 µM | > 300 µM | –

Structure (SMILES) | EC50 [1] | EC50 [2] | CC50 [3] | other results
CC1CCCC(C)N1S(=O)(=O)c1ccc(NC(=O)c2cc(C(F)(F)F)nn2C)cc1 (configuration not stated) | 0.014 µM | < 2.3 µM | > 300 µM | CC50 [4]: 328 µM
Cn1nc(C(F)(F)F)cc1C(=O)Nc1ccc(S(=O)(=O)OC2CCCCC2)cc1 | – | > 75 µM | > 300 µM | –
CC1CCN(S(=O)(=O)c2ccc(NC(=O)c3cc(C(F)(F)F)nn3C)cc2)CC1 | 0.035 µM | < 2.3 µM | > 300 µM | CC50 [4]: 53 µM
Cn1nc(C(F)(F)F)cc1C(=O)Nc1ccc(S(=O)(=O)N2CCCCC2CO)cc1 (configuration not stated) | 0.85 µM | < 2.3 µM | – | –
Cn1nc(C(F)(F)F)cc1C(=O)Nc1ccc(S(=O)(=O)N2CCC(N)CC2)cc1 | – | > 75 µM | > 300 µM | –
COC(=O)C1CCCCN1S(=O)(=O)c1ccc(NC(=O)c2cc(C(F)(F)F)nn2C)cc1 (configuration not stated) | – | 10 µM | 136 µM | –
CC1CCCCN1S(=O)(=O)c1ccc(NC(=O)c2cc(C(F)(F)F)nn2C(C)C)cc1 (configuration not stated) | – | > 75 µM | > 300 µM | –
Cn1nc(C(F)(F)F)c(Br)c1C(=O)Nc1ccc(S(=O)(=O)N2CCCC2)cc1 | – | > 75 µM | 95 µM | selectivity ratio [6]: < 1.3
Cn1nc(C(F)(F)F)cc1C(=O)Nc1ccc(S(=O)(=O)NC2CCCCC2)cc1 | – | > 15 µM | 15 µM | –
Cn1nc(C(F)(F)F)cc1C(=O)Nc1ccc(S(=O)(=O)N2CCN(CCOCCO)CC2)cc1 | – | > 75 µM | > 300 µM | –
Nc1ccc(O)c(NC(=O)Cc2ccccc2)c1 | – | – | – | EC50 [5]: 0.26 µM
CC1CCCCN1S(=O)(=O)c1ccccc1NC(=O)c1cc(C(F)(F)F)nn1C (configuration not stated) | – | > 75 µM | > 300 µM | –
Cn1nc(C(F)(F)F)cc1C(=O)Nc1ccc(S(=O)(=O)N2CCCCC2C(=O)O)cc1 (configuration not stated) | – | > 75 µM | > 300 µM | –
Cn1nc(C(F)(F)F)cc1C(=O)Nc1ccc(S(=O)(=O)N2CCCCC2)cc1 | 0.014 µM | < 2.3 µM | > 300 µM | selectivity ratio [6]: > 130; selectivity ratio [7]: 14200
NC(=O)c1ccc([N+](=O)[O-])cc1NC(=O)Cc1ccccc1 | – | – | – | EC50 [5]: 0.6 µM
Cn1nc(C(F)(F)F)cc1C(=O)Nc1ccc(S(=O)(=O)N2CCC(C(F)(F)F)CC2)cc1 | 0.02 µM | 2.3 µM | 159 µM | –
Cn1nc(C(F)(F)F)cc1C(=O)Nc1ccc(S(=O)(=O)N2CCCCCCC2)cc1 | 0.045 µM | < 2.3 µM | 16 µM | –
CCN(CC)S(=O)(=O)c1ccc(NC(=O)c2cc(C(F)(F)F)nn2C)cc1 | 0.019 µM | < 2.3 µM | > 300 µM | CC50 [4]: 280 µM
Cn1nc(C(F)(F)F)cc1C(=O)Nc1ccc(S(=O)(=O)N2CCCCCC2)cc1 | 0.005 µM | < 2.3 µM | > 300 µM | CC50 [4]: 425 µM
C=CCN(CC=C)S(=O)(=O)c1ccc(NC(=O)c2cc(C(F)(F)F)nn2C)cc1 | – | 3.3 µM | 34 µM | –
NC(=O)c1ncn([C@@H]2O[C@H](CO)[C@@H](O)[C@H]2O)n1 [RIBAVIRIN] | – | – | – | selectivity ratio [8]: 14.4
Cn1nc(C(F)(F)F)cc1C(=O)Nc1ccc(S(=O)(=O)N2CCC(O)CC2)cc1 | 0.57 µM | 6.8 µM | 274 µM | –
